Assay results taken from paper PMC4839570, “Novel Anthra[1,2-c][1,2,5]Thiadiazole-6,11-Diones as Promising Anticancer Lead Compounds: Biological Evaluation, Characterization & Molecular Targets Determination” (PLoS ONE, 2016).
Where two headings read alike, the source gives them in different places.

What was measured:
Type in all cases: cell-based
SK-MEL-2 = experiment: NCI-60 cytotoxicity screen
KM12 = experiment: NCI-60 cytotoxicity screen
SK-OV-3 = experiment: JFCR-39 cytotoxicity screen
BSY-1 = experiment: JFCR-39 cytotoxicity screen
NCI-H226 = experiment: NCI-60 cytotoxicity screen
MDA-MB-231/ATCC = experiment: NCI-60 cytotoxicity screen
DMS273 = experiment: JFCR-39 cytotoxicity screen
DU-145 = experiment: NCI-60 cytotoxicity screen
RXF 393 = experiment: NCI-60 cytotoxicity screen
OVCAR-4 = experiment: JFCR-39 cytotoxicity screen
MCF7 = experiment: NCI-60 cytotoxicity screen
SF-295 = experiment: JFCR-39 cytotoxicity screen
LOX IMVI = experiment: NCI-60 cytotoxicity screen
NCI-H460 = experiment: NCI-60 cytotoxicity screen
[1] = Homo sapiens, Fig 7, read-out: mean log10 of the GI50 values (converted)
[2] = Homo sapiens, five-dose, read-out: GI50
[3] = Homo sapiens, five-dose, read-out: LC50 (the source's name)
[4] = Homo sapiens, read-out: LC50 (the source's name)

## O=C1c2ccccc2C(=O)c2c1cc(Cl)c1nsnc21 [NSC757963]
SK-MEL-2; [1]
  GI50: 2.09 µM
SK-MEL-2; [2]
  GI50: 2.21 µM
SK-MEL-2; [3]
  CC50: 37.7 µM
SK-MEL-2; five-dose
  TGI: 5.77 µM
KM12; [1]
  GI50: 10.7 µM
KM12; [2]
  GI50: 12.9 µM
KM12; [3]
  CC50: 52.1 µM
KM12; five-dose
  TGI: 25.9 µM
SK-OV-3
  TGI: 14.0 µM
SK-OV-3; Homo sapiens
  GI50: 3.2 µM
SK-OV-3; [4]
  CC50: 38 µM
BSY-1
  TGI: 3.2 µM
BSY-1; Homo sapiens
  GI50: 1.7 µM
BSY-1; [4]
  CC50: 6 µM
NCI-H226; [1]
  GI50: 16.2 µM
NCI-H226; Homo sapiens, five-dose
  LC50 (concentration killing 50% of cells): 53.9 µM
NCI-H226; [2]
  GI50: 14.9 µM
NCI-H226; five-dose
  TGI: 28.3 µM
MDA-MB-231/ATCC; [1]
  GI50: 1.17 µM
MDA-MB-231/ATCC; [2]
  GI50: 1.32 µM
MDA-MB-231/ATCC; [3]
  CC50: 8.63 µM
MDA-MB-231/ATCC; five-dose
  TGI: 3.37 µM
DMS273
  TGI: 4.1 µM
DMS273; Homo sapiens, DMS-273
  GI50: 2.1 µM
DMS273; Homo sapiens, DMS-273, read-out: LC50 (the source's name)
  CC50: 8.1 µM
DU-145; [1]
  GI50: 14.1 µM
DU-145; [2]
  GI50: 14.2 µM
DU-145; [3]
  CC50: 52.2 µM
DU-145; five-dose
  TGI: 27.2 µM
RXF 393; Homo sapiens, RXF393, Fig 7, read-out: mean log10 of the GI50 values (converted)
  GI50: 1.86 µM
RXF 393; [2]
  GI50: 2.17 µM
RXF 393; [3]
  CC50: 27.1 µM
RXF 393; five-dose
  TGI: 7.21 µM
OVCAR-4
  TGI: 3.0 µM
OVCAR-4; Homo sapiens
  GI50: 1.6 µM
OVCAR-4; [4]
  CC50: 5.6 µM
MCF7; [1]
  GI50: 1.7 µM
MCF7; [2]
  GI50: 1.78 µM
MCF7; [3]
  CC50: 10.4 µM
MCF7; five-dose
  TGI: 4.24 µM
SF-295
  TGI: 3.5 µM
SF-295; Homo sapiens
  GI50: 1.9 µM
SF-295; [4]
  CC50: 6.5 µM
LOX IMVI; Homo sapiens, LOXIMVI, Fig 7, read-out: mean log10 of the GI50 values (converted)
  GI50: 1.74 µM
LOX IMVI; [2]
  GI50: 1.91 µM
LOX IMVI; [3]
  CC50: 19.7 µM
LOX IMVI; five-dose
  TGI: 5.21 µM
NCI-H460; Homo sapiens, NCI-460, five-dose, read-out: GI50
  GI50: 30.2 µM
NCI-H460; Homo sapiens, NCI-460, five-dose, read-out: LC50 (the source's name)
  CC50: > 100 µM
NCI-H460; Homo sapiens, NCI-H460, Fig 7, read-out: mean log10 of the GI50 values (converted)
  GI50: 33.1 µM
NCI-H460; NCI-460, five-dose
  TGI: >100 µM
